# From US11364231B2, “Methods of treating radiation induced gastrointestinal syndrome (RIGS) and related disease states using YEL002/BCN057” (priority 2017, dated 2022)
# “And” between values parts separate entries of the source, which are not always exact repeats. Equal values may be shown once. “Also recorded” adds a separate entry of the source.
# Key:
# [1] = system: Lgr5+ve ISC in Lgr5/GFP-IRES-Cre-ERT2 knock-in mice; experiment: Lgr5+ve ISC survival in vivo after AIR; details: 15 Gy AIR then BCN057; beyond 48 hrs post AIR, p<0.001
# Source text: To study this effect in vivo, the role of BCN057 in ISC survival was examined by exposing Lgr5/GFP-IRES-Cre-ERT2 knock-in mice to 15 Gy to AIR and then treated with BCN057. Lgr5+ve ISC had disappeared from crypt base within 48 hrs post AIR in untreated mice.
# WNT target genes = experiment: qPCR of WNT target genes in irradiated human colonic organoids; format: cell-based; details: epithelial cells from irradiated human colonic organoids treated with BCN057
# Method: (B-C, Data was the average of 3 human subjects).
# To examine the effect of BCN057 on human intestinal, epithelial tissue surgical specimen collected from normal colon at least 10 cm apart from malignant site was used to develop ex vivo crypt organoid. At a dose level of 8 Gy all the budding crypts have been disappeared in the organoids. […] The effect of BCN057 on mRNA level of β-catenin target genes in organoids was also evaluated.
# [2] = system: C57B16 mice exposed to AIR; experiment: Survival after lethal abdominal irradiation (AIR), RIGS model; details: for survival: BCN057 s.c. 150 mg/kg from 24 hrs post AIR, single dose/day up to day 8, n=25/group, vehicle/untreated died within 15 days
# Method: FIG. 1A. […] A 3 cm area of the mice containing the GI was irradiated (irradiation field), thus shielding the upper thorax, head and neck as well as lower and upper extremities, protecting a significant portion of the bone marrow, thus inducing predominantly RIGS. Mice exposed to AIR were treated with BCN057 (s.c.) (150 mg/kg of body weight) at 24 hrs post irradiation and continued up to day 8 (single dose/day).
# To examine the radio-mitigating role of BCN057 against RIGS, C57B16 mice were exposed to graded doses of abdominal irradiation (AIR) (14-15Gy) after shielding the thorax, head and neck, and extremities, thus protecting the bone marrow.
# Male C57B16/6J (Jackson laboratories) mice (five to six weeks old) were maintained ad libitum and all studies were performed under the guidelines and protocols of the Institutional Animal Care and Use Committee of the University of Kansas medical center.
# AIR was performed on anaesthetized mice (with a continuous flow 1.5 ml min-1 of 1.5% isoflurane in pure oxygen) using the small animal radiation research platform (SARRP, XStrahl, Surrey, UK). A 2 cm area of the mice containing the GI was irradiated (FIG. 2), thus shielding the upper thorax, head and neck as well as lower and upper extremities, protecting a significant portion of the bone marrow, thus inducing predominantly RIGS. A radiation dose of 14-15 Gy was delivered to the midline of the GI, ensuring homogeneous delivery by performing half of the total irradiation from the anterior-posterior direction and the second half from the posterior-anterior direction. The total irradiation time to deliver the intended dose was calculated with respect to dose rate, radiation field size and fractional depth dose to ensure accurate radiation dosimetry.
# NCI 60 cancer cell lines = experiment: NCI 60 cancer cell line screen; format: cell-based; details: BCN057 10 uM, 48 hours, sulforhodamine B assay
# Method: BCN057 was first examined in the National Cancer Institute (NCI) 60 cancer cell line platform. Several of these cell lines are known to be positive for dysregulation of the Wnt/b-catenin signaling pathway. […] Next we examined the effect of BCN057 in human colonic tumor derived organoids exposed to irradiation.
# 100 μL of each cell preparation was tested in accordance with its particular type and density, ranging from 5000-40,000 cells per well in a 96-well microtiter plate, corresponding to their own growth rate. BCN057 was evaluated 10 uM and incubation for 48 hours in a 5% CO2 atmosphere with 100% humidity. Proliferation was assayed using the sulforhodamine B assay with a plate reader to read the optical densities.
# [3] = system: intestinal crypt organoids from Lgr5/EGFP-IRES-Cre-ERT2 knock in mice; experiment: Ex vivo irradiated mouse intestinal crypt organoids; format: cell-based
# Source text: To analyze the effect of BCN057 on ISC population, an ex vivo primary intestinal culture system exposed to graded doses of irradiation was developed. Intestinal crypt isolated from Lgr5/EGFP-IRES-Cre-ERT2 knock in mice to allow the visualization of the ISCs. At a dose level of 8 Gy most of the Lgr5+ve ISCs had disappeared within 48 hrs resulting significant loss of budding crypt with changes in existing crypt morphology indicating inhibition of ISC growth and differentiation in response to radiation exposure. […] A representative microscopic image of effect of BCN057 on budding crypt having Lgr5+ve ISCs (GFP+ve cells indicated with arrow) is shown in FIG. 10.
# Small intestine from Lgr5-GFP mice, or their littermates control mice was used for crypt isolation and development of ex vivo organoid culture. The tissue was scraped for removing villi and chopped into˜5 mm pieces. Then tissue was washed with cold PBS, and incubated in dissociation buffer for 20 mins in rotor at room temperature. The tissue fragments were suspended vigorously with a 10-ml pipette in cold 0.1% BSA in PBS, yielding supernatants enriched in epithelial cells. […] The number of organoids per well was counted on microscopic images. […] Total number of crypt structures and number of budding crypts were counted and expressed as a ratio of budding crypts/total crypt structure.
# [4] = system: irradiated intestinal epithelium (jejunum); experiment: Jejunum histology and crypt proliferation after AIR; format: in vivo
compound,measurement,setting,value
"COc1ccc2cc(-c3nc4ccc(C)cn4c3NCc3ccco3)c(=O)[nH]c2c1 [BCN057, 3-(3((furan-2-ylmethyl)ammo)-6-methylimidazo[1,2-a]pyridine-2-yl)-6-methoxyquinolin-2(1H)-one]",Lgr5+ve ISC in jejunal crypts,[1],significant preservation; also recorded: presence of GFP+ve Lgr5+ve ISCs
same,mRNA level of WNT / β-catenin target genes,WNT target genes,several fold increase; also recorded: increases
same,duration of survival post AIR,"[2]; 14-15 Gy AIR, BCN057 at 24 hrs post AIR",> 30 days and > 60 days
same,survival,[2]; 14Gy AIR,80%
same,survival,[2]; 15Gy AIR,60%
same,symptoms / clinical conditions in surviving treated mice,"[2]; after AIR/PBI, observed up to day 30-60 post exposure",without showing any symptoms of RIGS; also recorded: did not develop any clinical conditions; also recorded: without any symptom of gastroenteritis or any other health complications
same,toxicity to normal mice,[2]; normal (un-irradiated) mice,do not confer any toxicity
same,proliferative response,NCI 60 cancer cell lines,None of these cells showed any proliferative response
same,organoid growth / ratio of budding crypt to total crypt,"[3]; 8 Gy, BCN057 10 uM at 1 hr after irradiation",restored the number of budding crypts to un-irradiated levels; also recorded: improved the organoid growth
same,Lgr5+ve ISCs in organoids,"[3]; 8Gy, BCN057 treated vs irradiated control",recused Lgr5+ve ISCs; also recorded: increases the presence of Lgr5+ve cells
same,percent of BrdU+ve crypt epithelial cells,"[4]; BCN057 treated vs untreated irradiated control, p<0.0005",significantly higher
same,crypt villus morphology and BRDU incorporation,[4]; non-irradiated mice treated with BCN057,did not induce any changes
